Results as given in US11649255B2, “Indazoles as hematopoietic progenitor kinase 1 (HPK1) inhibitors and methods using same” (1st Biotherapeutics, Inc., priority 2020, dated 2023).

Molecular target: recombinant human HPK1 (Homo sapiens (Human), UniProt Q92918)
Test: HPK1 kinase assay (ADP-Glo)
Assay type: biochemical
Conditions: 25 μM ATP, MBP substrate
Description: HPK1 kinase activity was measured by Promega's ADP-Glo™ kinase assay. In this assay, 5 ng of recombinant human HPK1 (signalchem) is incubated with 5 μL of compounds (0.5% DMSO), 5 μL of MBP (0.5 μg/μl) and 5 μL of ATP (25 μM) in buffer (40 mM Tris, 7.5; 20 mM MgCl2; 0.1 mg/ml BSA; 5 μM DTT). The assay was started by incubating the reaction mixture in a 96-well plate at 30′ C for 40 minutes. After the incubation, 25 uL ADP-Glo reagent was added and the reaction was incubated at room temperature for 40-min to stop the reaction and degrade residual ATP. The ADP product was then converted to ATP by adding 50 uL per well of detection reagent. Luminescence was detected after 30-min room temperature incubation with the Molecular device I3X plate reader. The IC50 values were calculated from a series of percent inhibition values determined at a range of inhibitor concentration using software routines as implemented in the GraphPad Prism 7 software and SigmaPlot13.0.

Sequence of recombinant human HPK1 (Q92918 whole entry): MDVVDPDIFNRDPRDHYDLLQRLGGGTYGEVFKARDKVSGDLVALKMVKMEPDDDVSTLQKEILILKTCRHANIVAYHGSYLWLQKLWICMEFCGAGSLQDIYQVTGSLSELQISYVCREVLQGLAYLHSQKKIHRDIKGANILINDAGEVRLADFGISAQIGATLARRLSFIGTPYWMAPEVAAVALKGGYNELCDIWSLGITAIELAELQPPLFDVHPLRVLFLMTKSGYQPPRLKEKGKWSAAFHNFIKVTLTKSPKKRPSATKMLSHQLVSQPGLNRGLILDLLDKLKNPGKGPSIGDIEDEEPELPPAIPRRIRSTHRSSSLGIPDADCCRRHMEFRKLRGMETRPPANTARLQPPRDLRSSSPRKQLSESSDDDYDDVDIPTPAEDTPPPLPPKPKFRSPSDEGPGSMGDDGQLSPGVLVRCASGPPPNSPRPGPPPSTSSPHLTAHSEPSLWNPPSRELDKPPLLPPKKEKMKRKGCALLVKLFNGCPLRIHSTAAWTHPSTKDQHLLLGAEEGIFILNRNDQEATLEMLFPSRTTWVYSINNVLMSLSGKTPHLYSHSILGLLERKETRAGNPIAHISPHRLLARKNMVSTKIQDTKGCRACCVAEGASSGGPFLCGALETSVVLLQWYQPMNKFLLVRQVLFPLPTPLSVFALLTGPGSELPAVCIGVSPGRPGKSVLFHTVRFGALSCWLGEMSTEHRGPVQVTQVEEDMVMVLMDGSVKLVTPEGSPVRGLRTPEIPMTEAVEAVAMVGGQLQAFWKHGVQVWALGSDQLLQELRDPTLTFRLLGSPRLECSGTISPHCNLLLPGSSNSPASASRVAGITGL

Row | Structure (SMILES) | IC50 [nM]
1 | CN(C)CCOc1ccc2[nH]ncc2c1-c1ccc2nc(NC(=O)[C@@H]3C[C@@H]3F)sc2c1 [Example 31, (1S,2S)-N-(6-(5-(2-(dimethylamino)ethoxy)-1H-indazol-4-yl)benzo[d]thiazol-2-yl)-2-fluorocyclopropane-1-carboxamide] | > 1000
2 | COCCOc1ccc2[nH]ncc2c1-c1ccc2nc(NC(=O)[C@@H]3C[C@@H]3F)sc2c1 [Example 34, (1S,2S)-2-fluoro-N-(6-(5-(2-methoxyethoxy)-1H-indazol-4-yl)benzo[d]thiazol-2-yl)cyclopropane-1-carboxamide] | > 1000
3 | O=C(Nc1nc2ccc(-c3c(Cn4cccn4)ccc4[nH]ncc34)cc2s1)[C@@H]1C[C@@H]1F [Example 38, (1S,2S)-N-(6-(5-((1H-pyrazol-1-yl)methyl)-1H-indazol-4-yl)benzo[d]thiazol-2-yl)-2-fluorocyclopropane-1-carboxamide] | > 1000
4 | O=C(Nc1nc2ccc(-c3c(Cl)c(F)cc4[nH]ncc34)cc2s1)[C@@H]1C[C@@H]1F [Example 41, (1S,2S)-N-(6-(5-chloro-6-fluoro-1H-indazol-4-yl)benzo[d]thiazol-2-yl)-2-fluorocyclopropane-1-carboxamide] | 101 to 500
5 | O=C(Nc1nc2ccc(-c3c(Br)c(F)cc4[nH]ncc34)cc2s1)[C@@H]1C[C@@H]1F [Example 42, (1S,2S)-N-(6-(5-bromo-6-fluoro-1H-indazol-4-yl)benzo[d]thiazol-2-yl)-2-fluorocyclopropane-1-carboxamide] | 101 to 500
6 | Cc1c(F)cc2[nH]nc(Cl)c2c1-c1ccc2nc(NC(=O)[C@@H]3C[C@@H]3F)sc2c1 [Example 44, (1S,2S)-N-(6-(3-chloro-6-fluoro-5-methyl-1H-indazol-4-yl)benzo[d]thiazol-2-yl)-2-fluorocyclopropane-1-carboxamide] | 501 to 1000
7 | Cc1c(F)cc2[nH]nc(I)c2c1-c1ccc2nc(NC(=O)[C@@H]3C[C@@H]3F)sc2c1 [Example 45, (1S,2S)-2-fluoro-N-(6-(6-fluoro-3-iodo-5-methyl-1H-indazol-4-yl)benzo[d]thiazol-2-yl)cyclopropane-1-carboxamide] | > 1000
8 | Cc1c(F)cc2[nH]nc(Br)c2c1-c1ccc2nc(NC(=O)[C@@H]3C[C@@H]3F)sc2c1 [Example 49, (1S,2S)-N-(6-(3-bromo-6-fluoro-5-methyl-1H-indazol-4-yl)benzo[d]thiazol-2-yl)-2-fluorocyclopropane-1-carboxamide] | 501 to 1000
9 | C=Cc1n[nH]c2cc(F)c(C)c(-c3ccc4nc(NC(=O)[C@@H]5C[C@@H]5F)sc4c3)c12 [Example 52, (1S,2S)-2-fluoro-N-(6-(6-fluoro-5-methyl-3-vinyl-1H-indazol-4-yl)benzo[d]thiazol-2-yl)cyclopropane-1-carboxamide] | > 1000
10 | Cc1c(F)c(Cl)c2[nH]nc(Cl)c2c1-c1ccc2nc(NC(=O)[C@@H]3C[C@@H]3F)sc2c1 [Example 53, (1S,2S)-N-(6-(3,7-dichloro-6-fluoro-5-methyl-1H-indazol-4-yl)benzo[d]thiazol-2-yl)-2-fluorocyclopropane-1-carboxamide] | 101 to 500
11 | Cc1c(F)c(Cl)c2[nH]nc(Cl)c2c1-c1cc(Cl)c2nc(NC(=O)[C@@H]3C[C@@H]3F)sc2c1 [Example 54, (1S,2S)-N-(4-chloro-6-(3,7-dichloro-6-fluoro-5-methyl-1H-indazol-4-yl)benzo[d]thiazol-2-yl)-2-fluorocyclopropane-1-carboxamide] | > 1000
12 | Cc1c(F)c(F)c2[nH]nc(F)c2c1-c1ccc2nc(NC(=O)[C@@H]3C[C@@H]3F)sc2c1 [Example 55, (1S,2S)-2-fluoro-N-(6-(3,6,7-trifluoro-5-methyl-1H-indazol-4-yl)benzo[d]thiazol-2-yl)cyclopropane-1-carboxamide] | 101 to 500
13 | CP(C)(=O)c1c(F)c(Cl)c(-c2ccc3nc(NC(=O)[C@@H]4C[C@@H]4F)sc3c2)c2cn[nH]c12 [Example 60, (1S,2S)-N-(6-(5-chloro-7-(dimethylphosphoryl)-6-fluoro-1H-indazol-4-yl)benzo[d]thiazol-2-yl)-2-fluorocyclopropane-1-carboxamide] | > 1000
14 | C=Cc1c(F)c(C)c(-c2ccc3nc(NC(=O)[C@@H]4C[C@@H]4F)sc3c2)c2cn[nH]c12 [Example 62, (1S,2S)-2-fluoro-N-(6-(6-fluoro-5-methyl-7-vinyl-1H-indazol-4-yl)benzo[d]thiazol-2-yl)cyclopropane-1-carboxamide] | 101 to 500

The remaining lines, values ahead:

Row | IC50 [nM] | Structure (SMILES)
15 | 101 to 500 | Cc1ccc2[nH]ncc2c1-c1ccc2nc(NC(=S)C3CC3)sc2c1 [Example 32, N-(6-(5-methyl-1H-indazol-4-yl)benzo[d]thiazol-2-yl)cyclopropanecarbothioamide]
16 | 101 to 500 | O=C(Nc1nc2ccc(-c3c(C(F)F)ccc4[nH]ncc34)cc2s1)[C@@H]1C[C@@H]1F [Example 33, (1S,2S)-N-(6-(5-(difluoromethyl)-1H-indazol-4-yl)benzo[d]thiazol-2-yl)-2-fluorocyclopropane-1-carboxamide]
17 | 101 to 500 | C=Cc1ccc2[nH]ncc2c1-c1ccc2nc(NC(=O)[C@@H]3C[C@@H]3F)sc2c1 [Example 35, (1S,2S)-2-fluoro-N-(6-(5-vinyl-1H-indazol-4-yl)benzo[d]thiazol-2-yl)cyclopropane-1-carboxamide]
18 | 101 to 500 | O=C(Nc1nc2ccc(-c3c(CF)ccc4[nH]ncc34)cc2s1)[C@@H]1C[C@@H]1F [Example 36, (1S,2S)-2-fluoro-N-(6-(5-(fluoromethyl)-1H-indazol-4-yl)benzo[d]thiazol-2-yl)cyclopropane-1-carboxamide]
19 | 101 to 500 | O=C(Nc1nc2ccc(-c3c(C4CC4)ccc4[nH]ncc34)cc2s1)[C@@H]1C[C@@H]1F [Example 37, (1S,2S)-N-(6-(5-cyclopropyl-1H-indazol-4-yl)benzo[d]thiazol-2-yl)-2-fluorocyclopropane-1-carboxamide]
20 | 101 to 500 | C#Cc1ccc2[nH]ncc2c1-c1ccc2nc(NC(=O)[C@@H]3C[C@@H]3F)sc2c1 [Example 39, (1S,2S)-N-(6-(5-ethynyl-1H-indazol-4-yl)benzo[d]thiazol-2-yl)-2-fluorocyclopropane-1-carboxamide]
21 | < 100 | Cc1c(F)cc2[nH]ncc2c1-c1ccc2nc(NC(=O)[C@@H]3C[C@@H]3F)sc2c1 [Example 40, (1S,2S)-2-fluoro-N-(6-(6-fluoro-5-methyl-1H-indazol-4-yl)benzo[d]thiazol-2-yl)cyclopropane-1-carboxamide]
22 | < 100 | CCc1c(F)cc2[nH]ncc2c1-c1ccc2nc(NC(=O)[C@@H]3C[C@@H]3F)sc2c1 [Example 46, (1S,2S)-N-(6-(5-ethyl-6-fluoro-1H-indazol-4-yl)benzo[d]thiazol-2-yl)-2-fluorocyclopropane-1-carboxamide]
23 | < 100 | C#Cc1c(F)cc2[nH]ncc2c1-c1ccc2nc(NC(=O)[C@@H]3C[C@@H]3F)sc2c1 [Example 47, (1S,2S)-N-(6-(5-ethynyl-6-fluoro-1H-indazol-4-yl)benzo[d]thiazol-2-yl)-2-fluorocyclopropane-1-carboxamide]
24 | < 100 | O=C(Nc1nc2ccc(-c3c(I)c(F)cc4[nH]ncc34)cc2s1)[C@@H]1C[C@@H]1F [Example 48, (1S,2S)-2-fluoro-N-(6-(6-fluoro-5-iodo-1H-indazol-4-yl)benzo[d]thiazol-2-yl)cyclopropane-1-carboxamide]
25 | < 100 | O=C(Nc1nc2ccc(-c3c(C(F)(F)F)c(F)cc4[nH]ncc34)cc2s1)[C@@H]1C[C@@H]1F [Example 50, (1S,2S)-2-fluoro-N-(6-(6-fluoro-5-(trifluoromethyl)-1H-indazol-4-yl)benzo[d]thiazol-2-yl)cyclopropane-1-carboxamide]
26 | < 100 | Cc1c(F)c(Cl)c2[nH]ncc2c1-c1ccc2nc(NC(=O)[C@@H]3C[C@@H]3F)sc2c1 [Example 51, (1S,2S)-N-(6-(7-chloro-6-fluoro-5-methyl-1H-indazol-4-yl)benzo[d]thiazol-2-yl)-2-fluorocyclopropane-1-carboxamide]
27 | < 100 | Cc1c(F)c(Cl)c(-c2ccc3nc(NC(=O)[C@@H]4C[C@@H]4F)sc3c2)c2cn[nH]c12 [Example 57, (1S,2S)-N-(6-(5-chloro-6-fluoro-7-methyl-1H-indazol-4-yl)benzo[d]thiazol-2-yl)-2-fluorocyclopropane-1-carboxamide]
28 | < 100 | CSc1c(F)c(Cl)c(-c2ccc3nc(NC(=O)[C@@H]4C[C@@H]4F)sc3c2)c2cn[nH]c12 [Example 58, (1S,2S)-N-(6-(5-chloro-6-fluoro-7-(methylthio)-1H-indazol-4-yl)benzo[d]thiazol-2-yl)-2-fluorocyclopropane-1-carboxamide]
29 | < 100 | Cc1c(F)c(C)c2[nH]ncc2c1-c1ccc2nc(NC(=O)[C@@H]3C[C@@H]3F)sc2c1 [Example 59, (1S,2S)-2-fluoro-N-(6-(6-fluoro-5,7-dimethyl-1H-indazol-4-yl)benzo[d]thiazol-2-yl)cyclopropane-1-carboxamide]
30 | < 100 | C=Cc1c(F)c(Cl)c(-c2ccc3nc(NC(=O)[C@@H]4C[C@@H]4F)sc3c2)c2cn[nH]c12 [Example 61, (1S,2S)-N-(6-(5-chloro-6-fluoro-7-vinyl-1H-indazol-4-yl)benzo[d]thiazol-2-yl)-2-fluorocyclopropane-1-carboxamide]
31 | < 100 | C[S+]([O-])c1c(F)c(Cl)c(-c2ccc3nc(NC(=O)[C@@H]4C[C@@H]4F)sc3c2)c2cn[nH]c12 (stereo partly drawn) [Example 63, (1S,2S)-N-(6-(5-chloro-6-fluoro-7-(methylsulfinyl)-1H-indazol-4-yl)benzo[d]thiazol-2-yl)-2-fluorocyclopropane-1-carboxamide]
